Measured values as given in ChEMBL document CHEMBL1201862, “PubChem BioAssay data set” (2004).
Activity calls are given as the source filed them.

Experiments:
[1] = biological target: T1, RNA-binding protein pos-1 (Caenorhabditis elegans, UniProt G5EF15); test: disruptors of C. elegans POS-1 RNA interaction – biochemical, fluorescence polarization, dose response (AID 1964);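 further: purified POS-1 fused to maltose binding protein made in E. coli; potency of compounds blocking POS-1 binding to fluorescent RNA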
T1 sequence (G5EF15 whole entry): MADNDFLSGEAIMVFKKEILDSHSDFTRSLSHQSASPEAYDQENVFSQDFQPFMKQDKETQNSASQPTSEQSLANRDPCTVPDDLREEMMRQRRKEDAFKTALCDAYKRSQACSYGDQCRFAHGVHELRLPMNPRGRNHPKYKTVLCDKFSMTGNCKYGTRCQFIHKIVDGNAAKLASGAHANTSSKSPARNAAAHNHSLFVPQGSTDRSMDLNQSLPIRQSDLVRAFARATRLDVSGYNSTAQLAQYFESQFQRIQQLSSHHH

[2] = biological target: Intestinal-type alkaline phosphatase (Homo sapiens, UniProt P09923); test: inhibition of human intestinal alkaline phosphatase – biochemical, dose response (AID 488876); format: functional
Chain of Intestinal-type alkaline phosphatase (P09923 whole entry): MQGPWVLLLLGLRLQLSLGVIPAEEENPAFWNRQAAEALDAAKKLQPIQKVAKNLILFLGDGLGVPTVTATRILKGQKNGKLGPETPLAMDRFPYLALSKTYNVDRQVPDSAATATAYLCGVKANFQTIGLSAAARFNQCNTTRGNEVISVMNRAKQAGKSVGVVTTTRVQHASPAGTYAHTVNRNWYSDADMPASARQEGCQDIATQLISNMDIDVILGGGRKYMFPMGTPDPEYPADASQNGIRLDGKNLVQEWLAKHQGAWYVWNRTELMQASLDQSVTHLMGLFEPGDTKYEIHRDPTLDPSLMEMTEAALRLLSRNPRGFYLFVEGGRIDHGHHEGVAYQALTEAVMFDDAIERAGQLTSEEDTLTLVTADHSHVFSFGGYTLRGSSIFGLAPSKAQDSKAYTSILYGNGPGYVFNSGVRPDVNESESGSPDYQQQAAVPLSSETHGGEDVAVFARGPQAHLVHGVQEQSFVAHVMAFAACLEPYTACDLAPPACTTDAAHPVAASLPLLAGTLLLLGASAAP

[3] = biological target: Apoptotic protease-activating factor 1 (Homo sapiens, UniProt O14727); format: functional
Chain of Apoptotic protease-activating factor 1 (O14727 whole entry): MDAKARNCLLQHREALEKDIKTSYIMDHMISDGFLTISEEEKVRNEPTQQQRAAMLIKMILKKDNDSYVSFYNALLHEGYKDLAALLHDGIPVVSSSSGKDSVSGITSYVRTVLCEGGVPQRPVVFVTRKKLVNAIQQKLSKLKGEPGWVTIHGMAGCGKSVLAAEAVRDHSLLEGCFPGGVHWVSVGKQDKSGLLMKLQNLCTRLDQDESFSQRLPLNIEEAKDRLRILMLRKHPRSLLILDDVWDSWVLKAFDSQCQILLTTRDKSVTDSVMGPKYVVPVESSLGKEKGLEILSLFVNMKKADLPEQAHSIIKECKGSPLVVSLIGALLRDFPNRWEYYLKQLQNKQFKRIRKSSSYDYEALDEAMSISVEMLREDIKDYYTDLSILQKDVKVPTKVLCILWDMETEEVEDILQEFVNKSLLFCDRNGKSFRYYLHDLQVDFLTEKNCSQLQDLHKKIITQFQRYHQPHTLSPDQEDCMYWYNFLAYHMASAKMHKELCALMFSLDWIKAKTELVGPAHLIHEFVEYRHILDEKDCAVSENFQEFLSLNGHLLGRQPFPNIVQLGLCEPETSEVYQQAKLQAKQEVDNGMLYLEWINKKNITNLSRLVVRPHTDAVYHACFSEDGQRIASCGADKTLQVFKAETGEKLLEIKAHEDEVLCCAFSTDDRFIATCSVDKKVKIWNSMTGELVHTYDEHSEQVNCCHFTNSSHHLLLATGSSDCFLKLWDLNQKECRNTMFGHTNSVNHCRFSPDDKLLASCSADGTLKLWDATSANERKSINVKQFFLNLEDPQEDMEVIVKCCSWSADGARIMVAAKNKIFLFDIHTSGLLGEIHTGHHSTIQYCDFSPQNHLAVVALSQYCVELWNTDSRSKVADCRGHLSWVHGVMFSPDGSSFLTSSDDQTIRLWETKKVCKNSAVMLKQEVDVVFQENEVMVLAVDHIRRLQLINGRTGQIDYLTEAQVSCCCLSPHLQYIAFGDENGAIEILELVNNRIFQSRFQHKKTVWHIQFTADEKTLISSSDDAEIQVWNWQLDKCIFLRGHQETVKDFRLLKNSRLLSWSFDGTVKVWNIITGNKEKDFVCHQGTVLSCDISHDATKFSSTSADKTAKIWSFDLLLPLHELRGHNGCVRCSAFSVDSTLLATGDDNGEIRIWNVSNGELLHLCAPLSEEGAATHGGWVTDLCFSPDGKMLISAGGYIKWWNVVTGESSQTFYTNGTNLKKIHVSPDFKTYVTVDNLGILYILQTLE

[4] = biological target: T2, Replicative DNA helicase DnaB (Mycobacterium tuberculosis, UniProt P9WMR3); test: DnaB intein splicing inhibitors, dose response, biochemical, cell-free fluorescence (AID 449749); format: functional
T2 sequence (P9WMR3 whole entry): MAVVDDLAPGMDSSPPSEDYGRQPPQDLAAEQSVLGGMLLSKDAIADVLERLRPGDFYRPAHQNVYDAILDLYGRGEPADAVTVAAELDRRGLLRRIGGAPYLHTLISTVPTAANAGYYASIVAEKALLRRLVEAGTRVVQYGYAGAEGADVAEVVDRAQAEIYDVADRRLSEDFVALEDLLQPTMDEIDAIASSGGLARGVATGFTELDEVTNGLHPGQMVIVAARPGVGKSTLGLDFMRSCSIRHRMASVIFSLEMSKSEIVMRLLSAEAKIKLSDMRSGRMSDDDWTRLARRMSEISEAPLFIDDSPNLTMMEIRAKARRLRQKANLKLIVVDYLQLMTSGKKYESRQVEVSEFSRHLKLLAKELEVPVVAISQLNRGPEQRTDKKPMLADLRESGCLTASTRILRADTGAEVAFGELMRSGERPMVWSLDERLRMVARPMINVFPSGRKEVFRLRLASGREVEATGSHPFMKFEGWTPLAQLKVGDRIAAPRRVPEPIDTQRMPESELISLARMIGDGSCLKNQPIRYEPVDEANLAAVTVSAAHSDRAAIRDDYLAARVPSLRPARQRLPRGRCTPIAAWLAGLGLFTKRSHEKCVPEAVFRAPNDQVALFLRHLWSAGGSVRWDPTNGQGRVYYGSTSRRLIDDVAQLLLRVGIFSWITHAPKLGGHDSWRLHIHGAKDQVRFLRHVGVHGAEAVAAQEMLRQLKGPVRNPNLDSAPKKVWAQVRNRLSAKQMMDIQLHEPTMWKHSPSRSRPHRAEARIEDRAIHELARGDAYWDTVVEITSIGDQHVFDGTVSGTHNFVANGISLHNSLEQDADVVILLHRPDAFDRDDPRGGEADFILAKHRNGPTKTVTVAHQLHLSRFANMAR

[5] = (§1) Counterscreen for antagonists of the orexin 1 receptor (OX1R; HCRTR1): Fluorescence-based cell-based high throughput dose response assay to identify antagonists of the parental CHO cell line. [Related pubchem assays (depositor defined):AID434989, AID435008, AID463079, AID485270, AID492963, AID492964, AID492965, AID493232, AID504699, AID504701]; format: functional
CHO-K1 = test: as §1, with “Homogeneous time resolved fluorescence (HTRF)-based” for “Fluorescence-based”, “cell-based” for “cell-based high throughput”, “CHO-K1” for “CHO”; format: functional; settings: Cricetulus griseus;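 further: potency for inhibition of ATP-stimulated IP1 production as antagonists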
[6] = Fluorescence-based cell-based high throughput dose response assay for inhibitors of the interaction of nucleotide-binding oligomerization domain containing 2 (NOD2) and the receptor-interacting serine-threonine kinase 2 (RIPK2).; format: functional; settings: Homo sapiens
[7] = biological target: Cyclin-dependent kinase 9 (Homo sapiens, UniProt P50750); format: functional;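 further: value from the CDK9 entry of a kinome-spanning kinase panel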
Chain of Cyclin-dependent kinase 9 (P50750 whole entry): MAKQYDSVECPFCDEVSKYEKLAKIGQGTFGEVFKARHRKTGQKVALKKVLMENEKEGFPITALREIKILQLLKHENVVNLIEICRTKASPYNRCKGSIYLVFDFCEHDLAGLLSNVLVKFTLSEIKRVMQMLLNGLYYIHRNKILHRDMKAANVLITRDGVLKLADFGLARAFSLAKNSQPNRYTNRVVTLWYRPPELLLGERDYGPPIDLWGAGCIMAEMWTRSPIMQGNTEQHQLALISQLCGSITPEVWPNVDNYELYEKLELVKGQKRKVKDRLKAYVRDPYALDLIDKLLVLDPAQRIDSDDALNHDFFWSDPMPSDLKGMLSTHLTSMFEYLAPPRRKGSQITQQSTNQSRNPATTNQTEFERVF

[8] = biological target: Mitogen-activated protein kinase kinase kinase kinase 4 (Homo sapiens, UniProt O95819); format: functional
Chain of Mitogen-activated protein kinase kinase kinase kinase 4 (O95819 whole entry, the tested form may be a part): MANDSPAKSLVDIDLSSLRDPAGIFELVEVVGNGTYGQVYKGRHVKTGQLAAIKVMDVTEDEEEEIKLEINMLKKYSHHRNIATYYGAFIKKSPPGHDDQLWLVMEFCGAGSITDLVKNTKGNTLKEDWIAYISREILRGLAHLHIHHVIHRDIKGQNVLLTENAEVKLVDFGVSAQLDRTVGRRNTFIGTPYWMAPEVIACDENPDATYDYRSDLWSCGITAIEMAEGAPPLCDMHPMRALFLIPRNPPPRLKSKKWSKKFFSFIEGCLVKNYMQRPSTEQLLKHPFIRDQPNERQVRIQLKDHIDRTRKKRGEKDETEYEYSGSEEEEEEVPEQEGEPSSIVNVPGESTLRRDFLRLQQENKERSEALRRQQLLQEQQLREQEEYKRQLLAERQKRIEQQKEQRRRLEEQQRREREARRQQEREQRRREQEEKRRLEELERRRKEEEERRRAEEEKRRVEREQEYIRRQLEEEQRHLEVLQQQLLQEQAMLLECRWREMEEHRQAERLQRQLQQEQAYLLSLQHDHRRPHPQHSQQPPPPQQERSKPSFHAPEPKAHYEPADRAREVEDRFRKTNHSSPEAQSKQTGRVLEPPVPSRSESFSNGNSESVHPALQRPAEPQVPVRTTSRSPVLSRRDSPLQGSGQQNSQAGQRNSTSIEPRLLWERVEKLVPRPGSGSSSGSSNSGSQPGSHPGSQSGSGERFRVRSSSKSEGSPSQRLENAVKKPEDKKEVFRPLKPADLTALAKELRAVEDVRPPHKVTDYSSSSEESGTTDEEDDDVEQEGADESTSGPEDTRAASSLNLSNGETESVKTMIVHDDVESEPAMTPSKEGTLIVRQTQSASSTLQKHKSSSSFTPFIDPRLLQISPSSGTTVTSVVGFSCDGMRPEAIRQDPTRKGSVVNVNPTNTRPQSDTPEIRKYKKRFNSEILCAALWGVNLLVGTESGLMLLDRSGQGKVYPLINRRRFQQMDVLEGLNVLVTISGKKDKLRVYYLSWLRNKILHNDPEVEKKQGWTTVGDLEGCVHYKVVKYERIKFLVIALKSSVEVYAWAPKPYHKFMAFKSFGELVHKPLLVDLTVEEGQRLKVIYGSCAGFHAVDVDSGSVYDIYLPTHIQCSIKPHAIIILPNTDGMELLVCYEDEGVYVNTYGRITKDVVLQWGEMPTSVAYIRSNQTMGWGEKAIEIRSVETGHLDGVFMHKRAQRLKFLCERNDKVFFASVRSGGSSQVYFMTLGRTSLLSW

[9] = blockers of HIV-1 ZM109 envelope-driven cell-cell fusion – HeLa effector, CEM target cells, luciferase, cherry-pick, dose response (AID 652058); format: functional, cell-based;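 further: luciferase signal from HIV-1 Env mediated cell-cell fusion of effector and target cells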
cells = format: functional, cell-based

O=C(O)CC(C(=O)O)N1C(=O)/C(=C/C=C/c2ccco2)SC1=S (stereo unspecified)
EC50 [1]: 10.4 µM (active) | IC50 [2]: > 100 µM (inactive) | IC50 [3]: 36.6 µM (active)

Cc1ccc(C(=O)OCn2ncc(Cl)c(Cl)c2=O)cc1
AC50 [4]: 3.66 µM (active) | IC50 [5]: > 49.7 µM (inactive) | IC50 (CHO-K1): > 66.2 µM (inactive) | IC50 [6]: 0.889 µM (active)

O=C(Nc1cccc(C2Nc3ccc4ccccc4c3C3C=CCC32)c1)c1ccc(F)cc1 (stereo unspecified)
Ki [7]: 0.251 µM (active) | Ki [8]: > 5.01 µM (inactive)

CCCC(=O)NC(c1cccs1)c1cc(Cl)c2cccnc2c1O (stereo unspecified)
AC50 [9]: 15 µM (active) | EC50 (cells): 24.4 µM (active)
